The target in one data set is p110α-p85 complex (Homo sapiens, UniProt P42336). The data set is described as follows: PI3-kinase p110α-p85 complex lipid kinase assay. The class given is biochemical. To be noted: read-out: IC50 PI3K 110a.
For the next data set, the target named is HA-tagged human PI4KIIIα (Homo sapiens, UniProt P42356). Put plainly: PI4KIIIα immunoprecipitate kinase assay with [γ-32P]-ATP. To be noted: in vitro enzyme assays; read-out: IC50 PI4KIIIα. The class given is biochemical.
Data set [1] concerns PI(4)P and PI(4,5)P2 in Huh7.5 cells. The data set is described as follows: Immunofluorescence of intracellular PI(4)P and PI(4,5)P2 pools in Huh7.5 cells. Type of data set: cell-based. The procedure: FIG. 1 illustrates that the exemplary compound PT423 decreases PI(4)P (top panels) and PI(4,5)P2 (bottom panels) in a dose-dependent manner. Left panels: uninfected Huh7.5 cells; right panels: HCV-infected Huh7.5 cells. Cells were treated with the indicated concentrations of PT423 or vehicle control, and analyzed by immunofluorescence with antibodies to PI(4)P or PI(4,5)P2 (green) along with an antibody to calnexin (red) to control for ER morphology.
To further confirm its mechanism of action the effect of PT423 on PI-4 levels was determined in cells using immunofluorescence to monitor the intracellular localized pools of PI-4. The effect of PT423 on intracellular pools of PIP2 was tested, which were predicted to be similarly sensitive to inhibition using PT423.
FIG. 1 illustrates that PT423 decreases PI(4)P (top panels) and PI(4,5)P2 (bottom panels) in a dose-dependent manner. Left panels: uninfected Huh7.5 cells; right panels: HCV-infected Huh7.5 cells. Cells were treated with the indicated concentrations of PT423 or vehicle control, and analyzed by immunofluorescence with antibodies to PI(4)P or PI(4,5)P2 (green) along with an antibody to calnexin (red) to control for ER morphology.

Another data set relates to human rhinovirus 14. The data set is described as follows: Rhinovirus assay: protection of HeLa S3 cells from cytopathic effect. The class given is cell-based. Particulars: Rhinovirus B, HRV14. Background: Cytopathic effects are the visible damage that an infection or toxin causes in cultured cells.
Setting [2] is: uninfected and HCV-infected Huh7.5 cells, immunofluorescence, FIG. 1.

Sequence of p110α-p85 complex (P42336 whole entry): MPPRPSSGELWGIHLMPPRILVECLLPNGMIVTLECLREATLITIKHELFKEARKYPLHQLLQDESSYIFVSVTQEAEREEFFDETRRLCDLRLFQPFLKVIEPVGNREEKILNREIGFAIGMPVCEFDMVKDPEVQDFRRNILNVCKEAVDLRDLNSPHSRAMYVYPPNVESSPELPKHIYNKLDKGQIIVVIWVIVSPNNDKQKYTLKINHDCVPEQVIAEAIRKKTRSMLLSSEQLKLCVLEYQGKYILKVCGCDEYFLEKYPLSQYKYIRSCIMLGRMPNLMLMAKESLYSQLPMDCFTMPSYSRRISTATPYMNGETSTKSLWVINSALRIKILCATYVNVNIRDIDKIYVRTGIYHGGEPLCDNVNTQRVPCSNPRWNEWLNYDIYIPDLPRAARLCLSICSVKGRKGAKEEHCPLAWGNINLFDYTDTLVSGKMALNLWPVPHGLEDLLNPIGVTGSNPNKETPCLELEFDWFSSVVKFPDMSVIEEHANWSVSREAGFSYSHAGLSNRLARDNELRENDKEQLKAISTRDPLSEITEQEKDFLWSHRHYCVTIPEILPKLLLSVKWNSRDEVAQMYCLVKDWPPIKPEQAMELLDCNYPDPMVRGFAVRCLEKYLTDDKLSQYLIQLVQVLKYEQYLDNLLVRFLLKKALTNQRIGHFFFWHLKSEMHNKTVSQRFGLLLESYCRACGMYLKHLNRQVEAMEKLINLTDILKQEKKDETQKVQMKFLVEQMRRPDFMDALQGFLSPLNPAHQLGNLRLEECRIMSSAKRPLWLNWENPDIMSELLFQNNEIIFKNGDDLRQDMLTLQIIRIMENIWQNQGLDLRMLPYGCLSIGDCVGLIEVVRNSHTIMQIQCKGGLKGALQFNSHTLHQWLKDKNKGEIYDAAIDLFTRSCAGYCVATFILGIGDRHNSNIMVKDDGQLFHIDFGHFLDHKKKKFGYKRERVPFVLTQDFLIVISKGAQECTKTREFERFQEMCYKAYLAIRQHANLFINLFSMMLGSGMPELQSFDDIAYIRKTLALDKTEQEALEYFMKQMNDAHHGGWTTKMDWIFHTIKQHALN
Sequence of p110α-p85 complex (P27986 whole entry partner): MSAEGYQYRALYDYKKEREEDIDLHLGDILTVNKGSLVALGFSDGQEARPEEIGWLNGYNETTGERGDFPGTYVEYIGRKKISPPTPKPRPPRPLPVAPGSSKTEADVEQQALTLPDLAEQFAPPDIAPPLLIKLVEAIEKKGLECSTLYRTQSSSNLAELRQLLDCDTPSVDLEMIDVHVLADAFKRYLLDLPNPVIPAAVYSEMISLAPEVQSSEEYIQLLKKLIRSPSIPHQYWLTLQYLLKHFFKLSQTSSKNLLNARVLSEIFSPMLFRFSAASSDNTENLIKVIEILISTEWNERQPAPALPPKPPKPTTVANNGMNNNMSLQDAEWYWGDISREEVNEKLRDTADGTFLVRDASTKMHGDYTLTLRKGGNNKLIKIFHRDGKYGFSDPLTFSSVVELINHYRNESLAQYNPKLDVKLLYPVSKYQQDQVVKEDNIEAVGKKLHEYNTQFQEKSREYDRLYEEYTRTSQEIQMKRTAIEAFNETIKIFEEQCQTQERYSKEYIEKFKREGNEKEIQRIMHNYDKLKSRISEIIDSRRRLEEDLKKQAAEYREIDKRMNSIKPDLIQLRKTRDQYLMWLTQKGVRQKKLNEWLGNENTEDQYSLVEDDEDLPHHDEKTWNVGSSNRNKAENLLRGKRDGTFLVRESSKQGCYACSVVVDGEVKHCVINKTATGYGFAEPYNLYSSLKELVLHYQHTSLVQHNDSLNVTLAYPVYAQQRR
Sequence of HA-tagged human PI4KIIIα (P42356 whole entry): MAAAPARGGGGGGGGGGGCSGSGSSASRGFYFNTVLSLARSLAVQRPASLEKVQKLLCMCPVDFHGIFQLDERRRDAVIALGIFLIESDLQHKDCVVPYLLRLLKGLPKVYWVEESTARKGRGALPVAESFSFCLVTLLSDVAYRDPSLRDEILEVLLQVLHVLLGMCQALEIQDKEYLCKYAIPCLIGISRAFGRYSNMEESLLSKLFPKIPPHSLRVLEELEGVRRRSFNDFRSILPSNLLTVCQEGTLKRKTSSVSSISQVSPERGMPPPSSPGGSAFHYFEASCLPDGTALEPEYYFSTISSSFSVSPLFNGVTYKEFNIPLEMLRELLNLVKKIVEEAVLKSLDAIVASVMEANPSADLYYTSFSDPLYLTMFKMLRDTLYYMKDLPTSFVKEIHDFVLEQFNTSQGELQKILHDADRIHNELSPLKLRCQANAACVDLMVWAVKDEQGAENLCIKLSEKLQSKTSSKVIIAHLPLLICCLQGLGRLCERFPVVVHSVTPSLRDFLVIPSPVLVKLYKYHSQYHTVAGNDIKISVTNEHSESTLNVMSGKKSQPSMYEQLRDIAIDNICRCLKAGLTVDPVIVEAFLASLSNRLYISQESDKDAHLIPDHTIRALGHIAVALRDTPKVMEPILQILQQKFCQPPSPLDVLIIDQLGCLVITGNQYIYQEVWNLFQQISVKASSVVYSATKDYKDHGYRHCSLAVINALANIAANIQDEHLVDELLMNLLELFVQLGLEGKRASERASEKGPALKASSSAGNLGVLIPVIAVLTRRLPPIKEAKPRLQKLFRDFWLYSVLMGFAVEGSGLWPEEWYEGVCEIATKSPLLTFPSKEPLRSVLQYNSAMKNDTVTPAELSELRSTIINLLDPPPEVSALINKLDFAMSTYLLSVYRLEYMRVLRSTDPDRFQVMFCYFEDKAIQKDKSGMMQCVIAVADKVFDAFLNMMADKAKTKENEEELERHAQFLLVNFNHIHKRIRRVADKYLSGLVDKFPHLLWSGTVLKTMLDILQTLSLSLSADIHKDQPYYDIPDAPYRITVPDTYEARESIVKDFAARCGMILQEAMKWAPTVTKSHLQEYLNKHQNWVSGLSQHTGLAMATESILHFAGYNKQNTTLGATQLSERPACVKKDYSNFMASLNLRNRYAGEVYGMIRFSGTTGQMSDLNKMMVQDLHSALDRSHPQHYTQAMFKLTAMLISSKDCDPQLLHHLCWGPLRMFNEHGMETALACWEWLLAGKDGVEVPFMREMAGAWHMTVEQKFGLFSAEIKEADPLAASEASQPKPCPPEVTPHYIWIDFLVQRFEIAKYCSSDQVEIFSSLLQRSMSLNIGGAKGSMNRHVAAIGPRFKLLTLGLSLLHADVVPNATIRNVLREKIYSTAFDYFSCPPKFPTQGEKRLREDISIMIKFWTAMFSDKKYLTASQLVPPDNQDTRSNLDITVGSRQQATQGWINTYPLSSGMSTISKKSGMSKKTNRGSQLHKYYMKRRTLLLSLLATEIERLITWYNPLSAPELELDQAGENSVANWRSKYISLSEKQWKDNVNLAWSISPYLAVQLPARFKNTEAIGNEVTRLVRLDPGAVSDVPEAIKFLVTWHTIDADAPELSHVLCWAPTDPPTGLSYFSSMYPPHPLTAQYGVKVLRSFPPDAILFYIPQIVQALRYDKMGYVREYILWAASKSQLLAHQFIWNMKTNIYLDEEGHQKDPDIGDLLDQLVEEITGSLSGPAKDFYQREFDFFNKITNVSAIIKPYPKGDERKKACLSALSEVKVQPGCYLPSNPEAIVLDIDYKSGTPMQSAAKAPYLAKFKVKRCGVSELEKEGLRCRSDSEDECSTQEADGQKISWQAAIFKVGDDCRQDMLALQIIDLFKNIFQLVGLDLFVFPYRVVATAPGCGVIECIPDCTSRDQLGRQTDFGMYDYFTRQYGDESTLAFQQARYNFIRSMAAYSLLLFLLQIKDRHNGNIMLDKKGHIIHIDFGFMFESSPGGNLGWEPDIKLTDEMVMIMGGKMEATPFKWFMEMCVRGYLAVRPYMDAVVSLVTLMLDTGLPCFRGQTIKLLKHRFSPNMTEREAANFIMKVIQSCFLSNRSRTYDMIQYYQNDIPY

Turning to `COc1ccc(-c2sc(NC(=O)C3CCCC3)nc2C)cc1S(=O)(=O)Nc1ccc(O)cc1` [PT423], the 50% inhibitory concentration (IC50) at p110α-p85 complex turned out to be 0.065 µM; on HA-tagged human PI4KIIIα it was 1.75 µM. Besides, the “effect on ER (calnexin co-staining)” value in data set [1] (control for non-specific effects on the cells) was “absence of any detectable effects on the ER”. Also, the “effect on PI-4 (PI(4)P) levels” value in data set [1] (setting [2]) is given as “dose-dependent decrease”. In data set [1] (setting [2]), the “effect on PIP2 (PI(4,5)P2) levels” value is recorded as “dose-dependent decrease”. For the same compound, in the data set on human rhinovirus 14, the EC50 came to 0.00032 µM.

The IC50 is the midpoint of a concentration-inhibition curve. By EC50 is commonly meant the concentration needed to bring the measured effect to its halfway point. Higher therefore signals weaker potency.

Source of the values: patent US9309236B2, “PI-kinase inhibitors with broad spectrum anti-infective activity” (The Board of Trustees of the Leland Stanford Junior …, priority 2011, dated 2016).
